Results from patent US20220354834A1, “METHODS AND MATERIALS FOR TREATING NEUROTOXICITY” (Cavion, Inc., priority 2019, published 2022).

Legend:
[1] = system: intraepidermal nerve fibers (BTZ-induced CIPN); experiment: IENF density and histopathology of plantar glabrous skin; format: in vivo, Wistar rat; conditions: for IENF DENSITY, Difference in rank sum (Dunn's Multiple Comparison Test): week 8
Experimental: (§1) Wistar female rats (n=52) (Envigo, Correzzano, Italy) at 10-11 weeks of age were utilized. The study was divided into 2 phases of 4 weeks each. […] Body weight was measured periodically during phase 1 from baseline (day 1) to day 28. At baseline and conclusion of phase 1 (day 28), nerve conduction velocity (NCV) was performed on caudal and sciatic nerves and Dynamic Aesthesiometer Test (DAT) measured mechanical threshold (MT) of the hind paw. […] Body weight was measured periodically from baseline (day 28) to day 56 (termination). NCV and MT were measured in all 4 groups at baseline and on day 35 and 56. […] At termination, sciatic nerves were obtained for β-tubulin polymerization and skin samples were procured for intraepidermal nerve fiber (IENF) density and histopathology.
At day 56, animals were euthanized by CO2 inhalation and tissue samples were procured from 4 rats per group. Right sciatic nerve was frozen in liquid nitrogen for β-tubulin polymerization assay and plantar glabrous skin samples were collected for IENF density.
Plantar glabrous skin samples (5 mm) from hind paws were fixed in 2% PLP (paraformaldehyde-lysine-sodium periodate) for 24 hours at 4° C. and cryoprotected overnight. Samples were serially cut with a cryostat to yield 20 μm sections. Three sections from each footpad were randomly selected and immunostained with rabbit polyclonal anti-protein gene product 9.5 (PGP 9.5; GeneTex, Irvine, Calif., USA) in combination with biotinylated anti-rabbit IgG and Vector SG substrate kit peroxidase (Vector Laboratories, Burlingame, Calif.) using a free-floating protocol. A blinded observer counted total number of immune-positive IENF in each section under light microscopy at high magnification with a microscope video camera. Individual fibers were counted that crossed dermal-epidermal interface. Secondary branches within epidermis were excluded. Length of epidermis was measured to generate linear density of IENF/millimeter as described elsewhere (Canta et al., 2016 Neurobiol Aging 45:136-148).

proteasome = experiment: Proteasome inhibition assay in PBMCs of treated rats; format: in vivo, rat
Experimental: as §1

MM.1S cells = experiment: In vitro BTZ cytotoxicity study (SRB assay); format: cell-based; conditions: Homo sapiens, MM1.S, 72 hours, read-out: IC50 of % cell survival
Experimental: (§2) MM.1S and U266B1 cells were obtained from the American Type Culture Collection (San Giovanni, Italy). All cell lines were maintained in floating culture with RPMI medium that contained 2 mM L-glutamine supplemented with 10% FBS, penicillin and streptomycin. MM.1S cell medium was supplemented with 1.5 g/L sodium bicarbonate, 10 mM HEPES and 1 mM sodium pyruvate. Cells were grown in 75 cm^2 culture flasks for floating cells (Corning Inc. Corning, N.Y., USA) at 37° C. in 5% CO2 and 95% air.
(§3) Cells were plated in 96-well plates (Eppendorf, Milano, Italy) at 10000 cells/well. […] After incubation, BTZ was diluted in culture medium at dose range for testing. Cells were fixed with trichloroacetic acid for 1 hour. Cells were stained with a solution of SRB in 1% acetic acid for 15 minutes. Unbound dye was removed by 5 washes with 1% acetic acid. Bound dye was dissolved with a solution of Tris (hydroxymethyl) aminomethane base and absorbance of content was measured at […]. Growth inhibition was expressed as percentage of DMSO control absorbance of cells and corrected for absorbance before addition of drug.

U266B1 cells = experiment: In vitro BTZ cytotoxicity study (SRB assay); format: cell-based; conditions: Homo sapiens, 72 hours, read-out: IC50 of % cell survival
Experimental: as §2, §3

RPMI 8226 cells = experiment: In vitro BTZ cytotoxicity study (SRB assay); format: cell-based; conditions: Homo sapiens, 72 hours, read-out: IC50 of % cell survival
[2] = system: human MMCs (RPMI 8226, MM.1S, U266B1); experiment: In vitro cytotoxicity and combination (BTZ and CX-8998) interference study, SRB assay in the 3 MCLs; format: cell-based; conditions: 72 hours
Experimental: as §3
Differences in percent cell survival between each drug or drug combination and control were analyzed by non-linear least squares with statistical significance at p<0.05.

| SMILES | IENF DENSITY, Difference in rank sum (Dunn's Multiple Comparison Test) ([1]; BTZ vs BTZ+ CX-8998 3 mg/kg, P > 0.05 ns) | IENF DENSITY, Difference in rank sum (Dunn's Multiple Comparison Test) ([1]; BTZ vs BTZ+ CX-8998 10 mg/kg, P > 0.05 ns) | IENF DENSITY, Difference in rank sum (Dunn's Multiple Comparison Test) ([1]; BTZ vs BTZ+ CX-8998 30 mg/kg, P < 0.05 *) | IENF DENSITY, Difference in rank sum (Dunn's Multiple Comparison Test) ([1]; BTZ+ CX-8998 3 mg/kg vs BTZ+ CX-8998 10 mg/kg, P > 0.05 ns) | IENF DENSITY, Difference in rank sum (Dunn's Multiple Comparison Test) ([1]; BTZ+ CX-8998 3 mg/kg vs BTZ+ CX-8998 30 mg/kg, P > 0.05 ns) | IENF DENSITY, Difference in rank sum (Dunn's Multiple Comparison Test) ([1]; BTZ+ CX-8998 10 mg/kg vs BTZ+ CX-8998 30 mg/kg, P < 0.01 **) | IENF DENSITY, Difference in rank sum (Dunn's Multiple Comparison Test) ([1]; CTRL vs BTZ+ CX-8998 3 mg/kg, P < 0.05 *) | IENF DENSITY, Difference in rank sum (Dunn's Multiple Comparison Test) ([1]; CTRL vs BTZ+ CX-8998 10 mg/kg, P < 0.001 ***) | IENF DENSITY, Difference in rank sum (Dunn's Multiple Comparison Test) ([1]; CTRL vs BTZ+ CX-8998 30 mg/kg, P > 0.05 ns) | % proteasome activity in circulating PBMCs (proteasome; BTZ, week 4 vs baseline, p<0.05) | proteasome activity (proteasome; weeks 5 and 8, BTZ alone) | IC50 (MM.1S cells) [nM] | IC50 (U266B1 cells) [nM] | IENF density (number of fibers per millimeter) ([1]; BTZ alone vs control, p<0.001) | IENF DENSITY, Difference in rank sum (Dunn's Multiple Comparison Test) ([1]; CTRL vs BTZ, P < 0.001 ***) | IC50 (RPMI 8226 cells) [nM] | inhibition of cell growth (cytotoxicity) ([2]; BTZ 0.05-250 nM, 3 MCLs) | percent cell survival ([2]; BTZ alone at IC50 (6, 4, 2.5 nM) vs DMSO control, p<0.001) |
| --- | --- | --- | --- | --- | --- | --- | --- | --- | --- | --- | --- | --- | --- | --- | --- | --- | --- | --- |
| CC(C)c1ccc(CC(=O)N[C@H](C)c2ccc(OCC(F)(F)F)cn2)cc1 [CX-8998, (R)-2-(4-Isopropylphenyl)-N-(1-(5-(2,2,2-Trifluoroethoxy)pyridin-2-yl)ethyl)acetamide] | −10.93 | −0.04167 | −20.54 | 10.89 | −9.611 | −20.50 | 18.06 | 28.94 | 8.444 |  |  |  |  |  |  |  |  |  |
| CC(C)C[C@H](NC(=O)[C@H](Cc1ccccc1)NC(=O)c1cnccn1)B(O)O [BTZ, bortezomib, reference compound] |  |  |  |  |  |  |  |  |  | significant inhibition | similarly inhibited | 6 ± 0.5 | 2.5 ± 0.6 | significantly decreased | 28.99 | 4 ± 1.7 | concentration-dependent inhibition of cell growth | significantly reduced |
